Source: publication PMC8151276, “An Integrated Approach toward NanoBRET Tracers for Analysis of GPCR Ligand Engagement” (Molecules, 2021)

Columns and labels:
Assay type in all cases: binding
P2RY1 = biological target: T1, P2RY1 (Homo sapiens, UniProt P47900); test: NanoBRET screen HiBiT-P2RY1 in HEK293
T1 construct: purchased Promega (in-house HiBiT-GPCR construct library, NanoBRET)
Description: (§1) Each tracer candidate was screened across the entire library of HiBiT-GPCR constructs using NanoBRET as the detection modality. As depicted in Figure 4A, the specificity of interactions was evaluated through decrease in BRET due to competitive displacement of a bound tracer by excess parental compound. Each tracer was analyzed for binding to each HiBiT-GPCR fusion in the absence and in the presence of competing parental compound. Briefly, HEK293 cells were transfected with HiBiT-GPCR constructs diluted into promoterless DNA to reduce expression and maximize translocation to the cell surface. Each tracer candidate was then screened at concentrations of 1 μM and 0.1 μM across cells expressing these fusions. Cells were treated for 1.5 h with tracer either alone or in the presence of 20 μM competing parental compound (i.e., control). BRET was measured upon addition of purified LgBiT and subsequent complementation with HiBiT genetically fused to a GPCR. The specificity of interactions was assessed through a decrease in BRET signal due to competitive displacement of the bound tracer. To further gauge the robustness of these interactions, the fold response over the control (i.e., BRETtracer/BRETcontrol) was calculated. We chose a 1.5-fold response, which translates to ≥7-fold signal over noise as the minimal threshold required to score an interaction as positive. […]. Below we highlight the screening results obtained for our exemplary fluorescent tracers based on Clozapine, Amitriptyline and AZD1283.
(§2) HiBiT-GPCR DNA constructs were diluted in 10 mM Tris pH 8 to a final concentration of 0.01 μg/μL, arrayed in 96-well plates and stored at −20 °C. For transfection, HEK293 cells were suspended in Opti-MEM (without phenol red) supplemented with 2% fetal bovine serum (Seradigm) and 100 units/mL penicillin–streptomycin (Gibco) at a final concentration of 220,000 cells/mL and dispensed into white 96-well plates at 90 μL/well. Subsequent transfections and screens were carried using an Agilent Bravo Automated Liquid Handling Platform. First, the 96-well HiBiT DNA arrays were diluted 25-fold in Opti-MEM (without serum or phenol red) to a final concentration of 0.0004 μg/μL and 20 μL of the diluted DNAs were transferred into new 96-well plates. Next, promoterless carrier DNA (1 μg/μL) was diluted 25-fold (0.04 μg/μL) and then dispensed into the diluted arrays at 20 μL/well. Following brief mixing, Viafect transfection reagent (Promega) diluted 16-fold into Opti-MEM was dispensed into the plates at 40 μL/well. After mixing by pipetting, plates were incubated for 10 min on the pipetting station deck. The DNA-transfection reagent complexes were then added to plates containing cells. To facilitate the screen, 10 μL of DNA-transfection reagent complexes were added in duplicates to the top 4 and bottom 4 rows, resulting in two identical 48-well arrays per plate. Plates with transfected cells were incubated for 18–20 h at 37 °C/5% CO2. A screen of each tracer across the entire library using two different concentrations requires duplicate plates of transfected cells. Depending on the number of tracers being screened, transfections can be scaled up using the same ratios. The next day, for each tracer, four 20× screening solutions in tracer dilution buffer (Promega) were prepared: two duplicates at final concentration of 20 μM and two duplicates at a final concentration of 2 μM. A competing unmodified compound was added to one of each duplicate at a final concentration of 400 μM. The four resulting solutions were diluted 4-fold in Opti-MEM without serum or phenol red to generate 5× solutions (5 µM and 0.5 µM tracer +/− 100 μM competing compound). To screen the library, a BioTek MultiFlo FX liquid dispenser was used to dispense 22.5 µL of tracer solution to the top 4 rows and 22.5 µL tracer + competing compound solution to the 4 bottom rows. Plates were briefly mixed on an orbital shaker and incubated for 1.5 h at room temperature. […]

FZD5 = biological target: T2, FZD5 (Homo sapiens, UniProt Q13467); test: NanoBRET screen HiBiT-FZD5 in HEK293
T2 construct: purchased Promega (in-house HiBiT-GPCR construct library, NanoBRET)
Description: as §1, §2

CXCR4 = biological target: T3, CXCR4 (Homo sapiens, UniProt P61073); test: NanoBRET screen HiBiT-CXCR4 in HEK293
T3 construct: purchased Promega (in-house HiBiT-GPCR construct library, NanoBRET)
Description: as §1, §2

BDKRB2 = biological target: T4, BDKRB2 (Homo sapiens, UniProt P30411); test: NanoBRET screen HiBiT-BDKRB2 in HEK293
T4 construct: purchased Promega (in-house HiBiT-GPCR construct library, NanoBRET)
T4 sequence (P30411 1-391): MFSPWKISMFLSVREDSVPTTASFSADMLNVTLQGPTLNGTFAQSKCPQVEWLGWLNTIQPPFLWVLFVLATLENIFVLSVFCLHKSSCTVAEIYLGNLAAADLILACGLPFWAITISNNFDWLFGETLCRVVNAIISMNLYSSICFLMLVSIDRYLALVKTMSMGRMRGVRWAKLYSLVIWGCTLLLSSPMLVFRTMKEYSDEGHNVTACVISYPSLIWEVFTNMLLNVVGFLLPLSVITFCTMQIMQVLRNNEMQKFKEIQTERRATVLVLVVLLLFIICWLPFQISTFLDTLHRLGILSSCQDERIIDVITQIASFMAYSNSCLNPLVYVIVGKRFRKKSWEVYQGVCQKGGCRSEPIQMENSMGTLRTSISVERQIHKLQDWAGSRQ
Description: as §1, §2

CCR7 = biological target: T5, CCR7 (Homo sapiens, UniProt P32248); test: NanoBRET screen HiBiT-CCR7 in HEK293
T5 construct: purchased Promega (in-house HiBiT-GPCR construct library, NanoBRET)
T5 sequence (P32248 25-378): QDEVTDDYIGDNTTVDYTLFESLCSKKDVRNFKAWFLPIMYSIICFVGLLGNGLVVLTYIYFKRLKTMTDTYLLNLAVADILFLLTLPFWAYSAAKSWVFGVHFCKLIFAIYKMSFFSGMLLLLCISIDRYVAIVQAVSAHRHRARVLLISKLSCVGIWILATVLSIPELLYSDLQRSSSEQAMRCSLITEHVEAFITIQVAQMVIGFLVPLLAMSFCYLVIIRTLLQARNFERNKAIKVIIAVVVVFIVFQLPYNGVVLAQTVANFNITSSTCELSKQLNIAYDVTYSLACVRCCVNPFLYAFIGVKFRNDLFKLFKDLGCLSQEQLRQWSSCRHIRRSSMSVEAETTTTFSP
Description: as §1, §2

CCR4 = biological target: T6, CCR4 (Homo sapiens, UniProt P51679); test: NanoBRET screen HiBiT-CCR4 in HEK293
T6 construct: purchased Promega (in-house HiBiT-GPCR construct library, NanoBRET)
T6 sequence (P51679 1-360): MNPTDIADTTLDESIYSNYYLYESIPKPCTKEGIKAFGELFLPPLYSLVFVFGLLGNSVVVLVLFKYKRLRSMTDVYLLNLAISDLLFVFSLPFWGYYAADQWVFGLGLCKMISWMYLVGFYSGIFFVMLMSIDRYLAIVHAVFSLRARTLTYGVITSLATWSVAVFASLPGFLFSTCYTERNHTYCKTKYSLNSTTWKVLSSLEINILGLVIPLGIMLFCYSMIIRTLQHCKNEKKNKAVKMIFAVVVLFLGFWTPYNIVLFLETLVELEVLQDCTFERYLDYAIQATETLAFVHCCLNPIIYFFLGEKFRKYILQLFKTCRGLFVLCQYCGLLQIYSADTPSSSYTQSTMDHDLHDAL
Description: as §1, §2

T2 sequence (Q13467 27-585): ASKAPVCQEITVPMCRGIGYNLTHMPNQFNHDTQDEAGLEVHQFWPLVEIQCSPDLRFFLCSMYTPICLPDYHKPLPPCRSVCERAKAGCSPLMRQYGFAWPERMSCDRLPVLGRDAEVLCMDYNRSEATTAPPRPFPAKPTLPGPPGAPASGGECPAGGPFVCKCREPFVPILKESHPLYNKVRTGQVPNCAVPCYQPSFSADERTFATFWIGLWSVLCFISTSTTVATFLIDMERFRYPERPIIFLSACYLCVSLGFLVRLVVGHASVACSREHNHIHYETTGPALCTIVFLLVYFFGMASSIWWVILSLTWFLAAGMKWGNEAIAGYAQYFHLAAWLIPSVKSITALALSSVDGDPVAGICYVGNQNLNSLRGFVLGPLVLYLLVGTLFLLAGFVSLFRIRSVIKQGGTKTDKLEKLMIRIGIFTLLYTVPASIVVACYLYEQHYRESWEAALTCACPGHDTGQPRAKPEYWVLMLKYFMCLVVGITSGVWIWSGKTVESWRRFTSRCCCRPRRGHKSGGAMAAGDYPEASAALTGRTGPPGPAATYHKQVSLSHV
T3 sequence (P61073 whole entry): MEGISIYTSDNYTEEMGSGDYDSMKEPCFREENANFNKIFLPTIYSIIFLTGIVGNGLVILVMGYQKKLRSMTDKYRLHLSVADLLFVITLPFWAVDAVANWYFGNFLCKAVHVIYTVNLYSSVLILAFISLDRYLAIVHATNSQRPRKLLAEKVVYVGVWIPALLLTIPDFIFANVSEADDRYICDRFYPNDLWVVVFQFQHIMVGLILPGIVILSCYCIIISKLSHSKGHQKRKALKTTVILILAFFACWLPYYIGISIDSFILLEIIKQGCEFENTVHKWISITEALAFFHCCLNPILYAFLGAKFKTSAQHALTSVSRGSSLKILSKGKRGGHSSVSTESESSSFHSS
T1 sequence (P47900 whole entry): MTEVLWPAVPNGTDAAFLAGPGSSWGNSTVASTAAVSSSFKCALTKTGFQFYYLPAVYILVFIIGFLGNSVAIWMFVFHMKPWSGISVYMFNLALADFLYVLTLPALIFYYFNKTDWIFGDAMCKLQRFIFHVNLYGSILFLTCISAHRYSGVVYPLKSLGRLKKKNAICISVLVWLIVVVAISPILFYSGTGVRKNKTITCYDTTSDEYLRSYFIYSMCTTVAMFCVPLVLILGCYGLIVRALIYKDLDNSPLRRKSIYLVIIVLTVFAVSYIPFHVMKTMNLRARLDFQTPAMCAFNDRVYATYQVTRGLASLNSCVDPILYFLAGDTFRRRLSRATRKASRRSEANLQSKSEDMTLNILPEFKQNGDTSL

O=C(CCc1ccc2n1[B-](F)(F)[N+]1=C(c3ccc[nH]3)C=CC1=C2)NCc1ccc(C(=O)NCCOCCC(=O)N[C@@H]2CC[C@@]3(O)[C@H]4Cc5ccc(O)c6c5[C@@]3(CCN4CC3CC3)[C@H]2O6)cc1 [Naltrexone-3-NB590]
NanoBRET Fold Response (P2RY1; P2RY1, tracer 0.1μM): 0.86 | NanoBRET Fold Response (P2RY1; P2RY1, tracer 1μM): 0.95 | NanoBRET Fold Response (FZD5; FZD5, tracer 0.1μM): 0.99 | NanoBRET Fold Response (FZD5; FZD5, tracer 1μM): 0.98 | NanoBRET Fold Response (CXCR4; CXCR4, tracer 0.1μM): 1.30 | NanoBRET Fold Response (CXCR4; CXCR4, tracer 1μM): 0.84 | NanoBRET Fold Response (BDKRB2; BDKRB2, tracer 0.1μM): 1.07 | NanoBRET Fold Response (BDKRB2; BDKRB2, tracer 1μM): 0.94 | NanoBRET Fold Response (CCR7; CCR7, tracer 0.1μM): 1.07 | NanoBRET Fold Response (CCR7; CCR7, tracer 1μM): 1.05 | NanoBRET Fold Response (CCR4; CCR4, tracer 0.1μM): 0.32 | NanoBRET Fold Response (CCR4; CCR4, tracer 1μM): 0.97

CN1CCN(C2=Nc3cc(Cl)ccc3N(CC(=O)NCCOCCOCCOCCOCCNC(=O)CCc3ccc4n3[B-](F)(F)[N+]3=C(c5ccc[nH]5)C=CC3=C4)c3ccccc32)CC1 [Clozapine-c-2-NB590]
NanoBRET Fold Response (P2RY1; P2RY1, 0.1μM tracer): 0.97 | NanoBRET Fold Response (P2RY1; P2RY1, 1μM tracer): 1.03 | NanoBRET Fold Response (FZD5; FZD5, 0.1μM tracer): 1.00 | NanoBRET Fold Response (FZD5; FZD5, 1μM tracer): 1.04 | NanoBRET Fold Response (CXCR4; CXCR4, 0.1μM tracer): 1.04 | NanoBRET Fold Response (CXCR4; CXCR4, 1μM tracer): 0.97 | NanoBRET Fold Response (BDKRB2; BDKRB2, 0.1μM tracer): 1.00 | NanoBRET Fold Response (BDKRB2; BDKRB2, 1μM tracer): 1.03 | NanoBRET Fold Response (CCR7; CCR7, 0.1μM tracer): 0.97 | NanoBRET Fold Response (CCR7; CCR7, 1μM tracer): 1.04 | NanoBRET Fold Response (CCR4; CCR4, 0.1μM tracer): 0.97 | NanoBRET Fold Response (CCR4; CCR4, 1μM tracer): 0.72

O=C(CCOCCOCCOCCOCCNC(=O)CCc1ccc2n1[B-](F)(F)[N+]1=C(c3ccc[nH]3)C=CC1=C2)NCCCN1CCN(C2=Nc3cc(Cl)ccc3Nc3ccccc32)CC1 [Clozapine-a-2-NB590]
NanoBRET Fold Response (P2RY1; P2RY1, 0.1μM tracer): 1.01 | NanoBRET Fold Response (P2RY1; P2RY1, 1μM tracer): 0.94 | NanoBRET Fold Response (FZD5; FZD5, 0.1μM tracer): 1.15 | NanoBRET Fold Response (FZD5; FZD5, 1μM tracer): 0.95 | NanoBRET Fold Response (CXCR4; CXCR4, 0.1μM tracer): 1.04 | NanoBRET Fold Response (CXCR4; CXCR4, 1μM tracer): 0.85 | NanoBRET Fold Response (BDKRB2; BDKRB2, 0.1μM tracer): 1.02 | NanoBRET Fold Response (BDKRB2; BDKRB2, 1μM tracer): 1.13 | NanoBRET Fold Response (CCR7; CCR7, 0.1μM tracer): 1.01 | NanoBRET Fold Response (CCR7; CCR7, 1μM tracer): 0.99 | NanoBRET Fold Response (CCR4; CCR4, 0.1μM tracer): 1.05 | NanoBRET Fold Response (CCR4; CCR4, 1μM tracer): 0.85

CCOC(=O)c1cc(C#N)c(N2CCC(C(=O)NS(=O)(=O)Cc3ccccc3/C=C/C(=O)NCCNC(=O)CCc3ccc4n3[B-](F)(F)[N+]3=C(c5ccc[nH]5)C=CC3=C4)CC2)nc1C [AZD1283-1-NB590]
NanoBRET Fold Response (P2RY1; P2RY1, 0.1μM): 1.06 | NanoBRET Fold Response (P2RY1; P2RY1, 1μM): 1.05 | NanoBRET Fold Response (FZD5; FZD5, 0.1μM): 1.07 | NanoBRET Fold Response (FZD5; FZD5, 1μM): 1.05 | NanoBRET Fold Response (CXCR4; CXCR4, 0.1μM): 0.86 | NanoBRET Fold Response (CXCR4; CXCR4, 1μM): 1.17 | NanoBRET Fold Response (BDKRB2; BDKRB2, 0.1μM): 1.06 | NanoBRET Fold Response (BDKRB2; BDKRB2, 1μM): 1.04 | NanoBRET Fold Response (CCR7; CCR7, 0.1μM): 1.03 | NanoBRET Fold Response (CCR7; CCR7, 1μM): 1.01 | NanoBRET Fold Response (CCR4; CCR4, 0.1μM): 1.09 | NanoBRET Fold Response (CCR4; CCR4, 1μM): 1.07

COc1ccc2[nH]c(-c3ccc(CNC(=O)CCOCCOCCOCCOCCNC(=O)CCc4ccc5n4[B-](F)(F)[N+]4=C(c6ccc[nH]6)C=CC4=C5)cc3)c(CCNC(C)=O)c2n1 [AzomelatoninICO9-2-NB590]
NanoBRET Fold Response (P2RY1; 0.1μM tracer): 0.99 | NanoBRET Fold Response (P2RY1; 1μM tracer): 0.99 | NanoBRET Fold Response (FZD5; 0.1μM tracer): 0.97 | NanoBRET Fold Response (FZD5; 1μM tracer): 0.93 | NanoBRET Fold Response (CXCR4; 0.1μM tracer): 1.00 | NanoBRET Fold Response (CXCR4; 1μM tracer): 0.81 | NanoBRET Fold Response (BDKRB2; 0.1μM tracer): 0.96 | NanoBRET Fold Response (BDKRB2; 1μM tracer): 0.93 | NanoBRET Fold Response (CCR7; 0.1μM tracer): 1.02 | NanoBRET Fold Response (CCR7; 1μM tracer): 0.98 | NanoBRET Fold Response (CCR4; 0.1μM tracer): 1.23 | NanoBRET Fold Response (CCR4; 1μM tracer): 0.96

CN(CCC=C1c2ccccc2CCc2ccccc21)C(=O)CCOCCOCCOCCOCCNC(=O)CCc1ccc2n1[B-](F)(F)[N+]1=C(c3ccc[nH]3)C=CC1=C2 [Amitriptyline-e-2-NB590]
NanoBRET Fold Response (P2RY1; tracer at 1μM): 0.96 | NanoBRET Fold Response (FZD5; tracer at 1μM): 0.98 | NanoBRET Fold Response (CXCR4; tracer at 1μM): 1.15 | NanoBRET Fold Response (CCR7; tracer at 1μM): 1.03 | NanoBRET Fold Response (CCR4; tracer at 1μM): 0.97
